This is an account of results in a melting point compilation (Tetko et al.; mined from patent text by program, amines drawn as free bases though some values may be those of a salt).

As a reminder, the melting point is the temperature of the solid-liquid transition. The molecule `N[C@@]1(C(=O)O)C[C@H](NC(=O)Nc2cccc(F)c2)[C@H]2[C@H](C(=O)O)[C@H]21` (relative stereo) showed a melting point greater than 250 °C.
On to `CS(=O)CC(=O)c1cccn1Cc1ccccc1` (centres undefined), for which the melting point lay in the range of 95 to 97 °C.
The figure for `OC1CCc2c(-c3ccccc3)cccc21` (centres undefined) is 80.5 to 81.5 °C; for `O=C(NC1CCCCC1)NS(=O)(=O)c1ccc(CCn2cnc3ccccc3c2=O)cc1` it is 228 to 230 °C; for `C=CC1OC(=O)c2c(Oc3nc(OC)cc(OC)n3)cccc21` (centres undefined) it is 94 to 97 °C.
Molecule `COc1cccc2c1CCNC2=S` registered a melting point of 44 to 46 °C.
The figure for `O=[N+]([O-])c1cn2c(n1)OC[C@@H](OCc1ccc(-c3nc4cc(OC(F)(F)F)ccc4[nH]3)cc1)C2` is 98 to 99 °C.
The figure for `CCOC(=O)CNCP(=O)(O)O` is greater than 220 °C.
The figure for `Cc1cc(C(=O)N2Cc3ccc(C(=O)NCc4cccnc4)n3Cc3ccccc32)ccc1-c1ccccc1` is 108 to 112 °C; for `O=C(CC(=O)C(F)(F)F)c1ccc(Cl)cc1` it is 66 to 67 °C; for `O=C(O)/C=C/c1cncc(OCc2ccccc2)c1` it is 140 °C.
Consider `COC(=O)c1cc(N)c(F)cc1Cl`, for which the melting point lay within 76 to 78 °C.
The figure for `COc1ccc(S(=O)(=O)c2cnc(C)nc2Cc2c(C)cc(C)cc2C)cc1` is 150 to 152 °C; for `CNC(=O)NCc1cccc(-c2csc(N=C(N)N)n2)n1` it is 205 to 206 °C.
The figure for `COC(=O)c1cccc(-c2c(C)[nH]c(=S)n2Nc2cccc(C)c2)c1` is 164 to 166 °C; for `O=C1COCCCOC(=O)COCCCO1` it is 135 to 136 °C; for `Nc1ccccc1C(=O)NCCN1CCC(n2c(=O)[nH]c3cc(Cl)ccc32)CC1` it is 227 °C.
As for `CCCCOC(=O)N[C@H]1C(=O)N[C@H]1CO` (relative stereo), the figure is 128 to 131 °C.
Regarding `O=C1CCC(N2Cc3cc(CNC(=O)Nc4ccc(Br)cc4)ccc3C2=O)C(=O)N1` (centres undefined), the melting point was in the range of 278 to 280 °C.
Consider `Cc1ccc2nc(NC3=NCCN3)[nH]c2c1C`, for which the melting point was in the range of 199 to 204 °C.
As for `O=C(Cc1cccs1)Nc1n[nH]c2cc(Cl)ccc12`, the figure is 210 °C; as for `COc1ccc(CC2=Cc3ncccc3Nc3cccnc32)cc1`, 124 to 127 °C.
The figure for `COc1ccc(CCC(=O)Nc2c(C)c(C)c3c(c2C)C(c2ccc(C(C)C)cc2)CO3)cc1` (centres undefined) is 119 to 120 °C; for `CCC(C)(C)NC(=O)c1ccc(S(=O)(=O)Cl)c(OC)c1` it is 104 °C.
`COC(=O)c1ccccc1-c1cc(-c2ccc(C(F)(F)F)cc2)no1` returned a melting point of 90.5 to 92 °C.
The figure for `CCc1nc2c(n1Cc1ccc(OC)cc1)C(=O)N(C)CN2c1ccc(Cl)cc1Cl` is 116 to 118 °C; for `COCCn1cc(C=O)c(-c2ccc([N+](=O)[O-])o2)n1` it is 137 to 138 °C; for `O=C(COc1ccc2ccccc2c1)Nc1ccc(C(=O)C(=O)O)cc1` it is 215 to 216 °C.
Regarding `Cn1nc(-c2cnc3[nH]cc(C(=O)NC4CCOCC4)c3n2)c2ccc(Cl)cc21`, the melting point was in the range of 355 to 358 °C.
The figure for `COC(=O)CCc1cc2cc(Cl)ccc2n1S(=O)(=O)c1ccc2c(c1)OCO2` is 122 to 129 °C; for `CNC1=NS(=O)(=O)N=C1NCCSCc1ccc(CN(C)C)o1` it is 92 to 96 °C; for `CCCc1cc(=O)oc2cc(OCCCN3CCN(c4ccccc4)CC3)ccc12` it is 114 to 116 °C.
As for `NS(=O)(=O)c1cc(C(=O)OCC(=O)N2CCC(CCO[N+](=O)[O-])CC2)c(NCc2ccco2)cc1Cl`, the figure is 170 °C; as for `Cc1c(NC(=O)CC(C)(C)C)c(C)c2c(c1-c1ccco1)OC[C@@H]2c1ccc(C(C)C)cc1`, 214 to 217 °C; as for `O=C1c2ccccc2C(=O)N1CCCCC1N=NC(=S)N1` (centres undefined), 223 to 225 °C.
As for `Cc1oc(-c2ccccc2)nc1COc1ccc(C=O)cn1`, the figure is 116 to 117 °C; as for `CC1Cc2c(N)c(Cl)cc(C(=O)NCCC34CCCN3CCC4)c2O1` (centres undefined), 127 to 129 °C.
`COC(=O)N(C)c1cccc(C(=O)C=CN(C)C)c1` gave a melting point of 93 to 95 °C.
For `CCC(CC)c1nnc(SC)n(N)c1=O`, the melting point was in the range of 50 to 56 °C.
As for `Cc1cc(-n2cnnc2)ccc1[N+](=O)[O-]`, the figure is 208 to 210 °C; as for `Cc1cc(OCC(O)CCCl)ccc1Cl` (centres undefined), 87 to 89 °C; as for `CCCCCCCCCCCCCCCCn1c(-c2ccc(Cl)c(N)c2)nc2ccccc21`, 162 to 163 °C.
The figure for `Cc1oc(-c2ccccc2)nc1COc1ccc(COc2ncccc2C#N)cc1` is 119 to 120 °C; for `COC(=O)c1cn(-c2ccnc3ccccc23)c2cc(F)ccc12` it is 186 °C; for `CN(C=C(c1ccccc1)c1ccccc1)C(=O)c1sc2ccc(C(F)(F)F)cc2c1O` it is 147 to 150 °C.
In turn, `CC(=O)N1CCC(c2nn(-c3ccccc3)c3cc(Br)ccc23)CC1` came in with a melting point of 136 to 138 °C.
On to `CCCCCCCCCCCCCCCCOCC(O)CN1CCC(C)CC1` (centres undefined), for which the melting point fell in the range of 84 to 85 °C.
As to `C=CCN1CCCN(c2cc(Cl)ccc2C)C1=S`, the melting point fell in the range of 71 to 72 °C.
The figure for `O=C1CCC(=O)N1c1ncccn1` is 148 to 150 °C; for `Cc1cccc(-c2nc(-c3ccc(S(C)(=O)=O)cc3)sc2-c2ccnc(S(=O)(=O)c3ccccc3)c2)c1` it is 126 to 128 °C.
The figure for `CCCCc1oc2ccc(NS(C)(=O)=O)cc2c1C(=O)c1ccc(OCCN(CCCC)CCCC)cc1` is 86 °C; for `COC(=O)C1Sc2cc(Cl)ccc2OCC1=O` (centres undefined) it is 92 to 94 °C.
As for `CSC(Nc1cc(C(F)(F)F)cc(C(F)(F)F)c1)=C(C#N)S(=O)(=O)c1ccc(Cl)cc1`, the figure is 150 to 152 °C; as for `COC(CN1C(=O)CN=C(c2ccccc2)c2cc(Cl)ccc21)OC`, 117 to 119 °C; as for `CN(C)c1ccc(-c2cnn(-c3cccc(C(=O)O)c3)c2)cc1`, 224 to 225 °C.
On to `CC(C)c1ccc(S(=O)(=O)Nc2ccc(N3CCC(NCC(O)COc4ccc(O)cc4)CC3)nc2)cc1` (centres undefined), for which the melting point fell in the range of 75 to 78 °C.
The figure for `COc1cnc(C(=O)Nc2c(Cl)cncc2Cl)cc1OC1CCCC1` is 129 to 130 °C; for `Nc1nc(OCC2CCCCC2)c2c(n1)=NC(=O)N=2` it is 297 °C; for `CC(C)(C)OC(=O)c1cc(OCc2ccccc2)c(C(=O)c2c(OCc3ccccc3)cccc2C(=O)O)c(OCc2ccccc2)c1` it is 151 to 156 °C.
The figure for `COc1ccc(-c2ccc(C(=O)Nc3ccc4cc(CN5CCCCC5)cnc4c3C)c(F)c2)cc1` is 191 to 192 °C.
As for `Cc1ncc2cc(-c3c(Cl)cccc3Cl)c(NC(=O)N(C)C)nc2n1`, the figure is 177 to 181 °C; as for `Cc1c2c(c(C(O)c3ccccn3)c(C)c1NC(=O)CC(C)(C)C)OC(C)(C)C2` (centres undefined), 176 to 177 °C; as for `Cc1noc(NS(=O)(=O)c2ccccc2-c2ccc(-c3ncco3)cc2CN(C)C(=O)c2cc3ccccc3[nH]2)c1C`, 135 to 145 °C.
With `N#Cc1ccc(C(=O)N2CCC[C@H]2C(=O)O)cc1`, the melting point fell in the range of 80 to 85 °C.
In turn, `CCCCCCCC(=O)C(CC(=O)OCC)C(=O)OCC` (centres undefined) registered a melting point of 138 to 142 °C.
In turn, `C/C(=C\c1ccc(CO)cc1)c1ccc2c(c1)C(C)(C)CCO2` gave a melting point of 80 to 81 °C.
`CCCCCCCCn1nnc(C(C(=O)Nc2c(OC)cc(OC)cc2OC)c2ccccc2)n1` (centres undefined) came in with a melting point of 113 to 116 °C.
Take `Cc1cc2nnc(C)n2nc1-c1cccc(C(F)(F)F)c1`: the melting point fell in the range of 185 to 187 °C.
The figure for `Cc1ccc2c(NCc3ccc(NC(=O)c4ccc(Cl)cc4)cc3)nc(N3CCCCCC3)nc2c1` is 192 to 194 °C; for `O=C(Cl)c1ccccc1SSc1ccccc1C(=O)Cl` it is 145 to 148 °C; for `CCOC(=O)C1(NS(=O)(=O)c2ccc3c(Cl)cnc(NC(=N)N)c3c2)CCCC1` it is 225 to 226 °C.
As for `CCn1nc(C)cc1C(=O)OC`, the figure is 130 to 133 °C; as for `COc1ccc(CCN2C=CC=C3C2=Nc2cc(C)ccc2S(=O)(=O)N3C)cc1`, 128 °C.
The figure for `CCCc1nn(-c2ccc(C(F)(F)F)cn2)cc1CCCOc1cccc(OC(C)(C)C(=O)O)c1` is 99 to 100 °C.
As for `CCOC(=O)c1cc(C(=O)NC)nc(C(=O)NC)c1N`, the melting point is 185 to 186 °C.
The figure for `CCCC1=C(C#N)C(c2ccccc2C)c2c[nH]nc2N1` (centres undefined) is 230 °C; for `CN(C)C=C1CCN(c2ccccc2)c2ccccc2C1=O` it is 131 to 133 °C.
The figure for `CC=C(C#N)c1cccnc1` is 46 to 47 °C.
As for `CSCc1c(N)c([N+](=O)[O-])cc(F)c1F`, the figure is 110 to 112 °C; as for `Cc1cc(NC(=O)C(C)(O)COc2cc(F)cc(F)c2)ccc1[N+](=O)[O-]` (centres undefined), 104 to 106 °C; as for `CC(C)(C)c1cc(N=C=O)no1`, 165 to 167 °C.
Consider `CC(C)N(CC(O)COc1ccccc1C(=O)Nc1cccc2[nH]ccc12)C(C)C` (centres undefined), for which the melting point came out at 160 °C.
As for `O=C(OI(OC(=O)C(F)(F)F)C(F)(F)C(F)(F)C(F)(F)C(F)(F)C(F)(F)C(F)(F)F)C(F)(F)F`, the figure is 60 to 62 °C; as for `COCCc1nc2c(N)nc3ccccc3c2n1CCCNC(=O)NC1CCCCC1`, 179 to 180 °C.
The figure for `COc1cc(C2=NCCc3cc(C)ccc32)cc(OC)c1OC` is 105 to 106 °C; for `O=C1CC2CCc3ccc(F)cc3C2=NN1c1ccc(OCC2CO2)cc1` (centres undefined) it is 128 to 130 °C; for `N=C1N(c2ccccc2)CCN1c1ccccc1[N+](=O)[O-]` it is 257 to 259 °C.
The figure for `Cc1ccc2cccc3c2c1N(Cc1ccccc1)C3=NCCCn1ccnc1` is 107 to 109 °C; for `O=C(C=Cc1ccccc1)c1cccc(NC(=O)c2ccn3c2CSC3c2cccnc2)c1` (centres undefined) it is 190 °C.
